US10040781B2, “Tank-binding kinase inhibitor compounds” (Gilead Sciences, Inc., priority 2014, dated 2018)
Read-outs that look alike come from different tables or passages of the source.

How the values were obtained:
IKKε = IKKε (Homo sapiens (Human), UniProt Q14164); test: IKKε TR-FRET enzymatic assay; assay type: biochemical; details: read-out: IKKe IC50
hJAK2 = hJAK2 (Homo sapiens (Human), UniProt O60674); test: hJAK2 LANCE TR-FRET enzymatic assay; assay type: biochemical; details: read-out: JAK2 IC50
Sequence of hJAK2 (O60674 whole entry): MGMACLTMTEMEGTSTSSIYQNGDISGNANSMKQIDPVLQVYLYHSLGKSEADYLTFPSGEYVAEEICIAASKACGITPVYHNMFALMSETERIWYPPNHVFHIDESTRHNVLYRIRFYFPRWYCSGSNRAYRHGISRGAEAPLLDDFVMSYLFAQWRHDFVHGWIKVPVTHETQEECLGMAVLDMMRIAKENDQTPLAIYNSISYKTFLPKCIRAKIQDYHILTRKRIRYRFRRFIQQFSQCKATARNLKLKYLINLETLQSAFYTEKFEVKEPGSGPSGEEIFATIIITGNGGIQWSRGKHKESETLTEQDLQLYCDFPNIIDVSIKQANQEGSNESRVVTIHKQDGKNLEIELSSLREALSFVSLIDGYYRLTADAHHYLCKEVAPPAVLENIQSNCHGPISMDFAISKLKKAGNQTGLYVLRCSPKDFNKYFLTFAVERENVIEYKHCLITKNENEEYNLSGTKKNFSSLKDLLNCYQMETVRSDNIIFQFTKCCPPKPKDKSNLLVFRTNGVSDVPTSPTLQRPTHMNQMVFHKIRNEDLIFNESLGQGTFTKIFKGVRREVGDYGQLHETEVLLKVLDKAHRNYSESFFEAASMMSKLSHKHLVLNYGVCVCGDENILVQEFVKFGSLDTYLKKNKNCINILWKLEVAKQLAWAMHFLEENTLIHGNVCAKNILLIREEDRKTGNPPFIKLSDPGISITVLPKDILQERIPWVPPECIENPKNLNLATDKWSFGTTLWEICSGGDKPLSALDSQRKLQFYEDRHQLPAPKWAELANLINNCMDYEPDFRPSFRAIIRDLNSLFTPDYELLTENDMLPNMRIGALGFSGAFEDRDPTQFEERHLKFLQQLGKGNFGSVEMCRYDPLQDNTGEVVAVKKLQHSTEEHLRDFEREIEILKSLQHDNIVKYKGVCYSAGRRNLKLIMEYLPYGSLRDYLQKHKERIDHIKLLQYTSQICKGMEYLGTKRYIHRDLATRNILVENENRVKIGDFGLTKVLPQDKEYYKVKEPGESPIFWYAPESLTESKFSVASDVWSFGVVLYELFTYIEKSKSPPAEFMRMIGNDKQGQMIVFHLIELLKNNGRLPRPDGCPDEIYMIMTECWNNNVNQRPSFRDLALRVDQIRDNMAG

TBK1 = TBK1 (Homo sapiens (Human), UniProt Q9UHD2); test: TBK1 TR-FRET enzymatic assay;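 note: phosphorylation of a biotinylated Ser/Thr peptide by purified full-length recombinant TBK1, read by TR-FRET after 240 min at 25 °C, IC50 is the geometric mean of at least four runs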
Sequence of TBK1 (Q9UHD2 whole entry): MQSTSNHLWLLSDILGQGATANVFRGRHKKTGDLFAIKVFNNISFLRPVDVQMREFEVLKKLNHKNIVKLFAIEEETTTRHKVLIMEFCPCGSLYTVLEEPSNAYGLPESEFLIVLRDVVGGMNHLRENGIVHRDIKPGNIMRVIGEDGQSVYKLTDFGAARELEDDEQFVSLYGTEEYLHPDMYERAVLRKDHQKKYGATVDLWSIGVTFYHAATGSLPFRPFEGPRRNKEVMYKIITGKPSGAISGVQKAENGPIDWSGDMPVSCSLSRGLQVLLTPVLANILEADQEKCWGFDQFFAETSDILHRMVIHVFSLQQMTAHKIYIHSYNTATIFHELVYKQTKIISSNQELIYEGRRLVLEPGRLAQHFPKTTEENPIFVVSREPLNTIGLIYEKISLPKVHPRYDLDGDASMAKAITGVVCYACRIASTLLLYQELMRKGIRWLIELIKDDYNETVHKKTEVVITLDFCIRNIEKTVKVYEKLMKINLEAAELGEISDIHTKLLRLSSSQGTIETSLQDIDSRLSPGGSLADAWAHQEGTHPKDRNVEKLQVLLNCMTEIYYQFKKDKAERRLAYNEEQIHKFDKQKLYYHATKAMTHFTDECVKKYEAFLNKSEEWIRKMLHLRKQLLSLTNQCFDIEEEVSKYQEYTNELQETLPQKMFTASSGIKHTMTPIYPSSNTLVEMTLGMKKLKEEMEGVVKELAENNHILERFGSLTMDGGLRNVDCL

[1] = TR-FRET, 2×Km ATP, geometric mean of minimum four determinations

Sequence of IKKε (Q14164 whole entry): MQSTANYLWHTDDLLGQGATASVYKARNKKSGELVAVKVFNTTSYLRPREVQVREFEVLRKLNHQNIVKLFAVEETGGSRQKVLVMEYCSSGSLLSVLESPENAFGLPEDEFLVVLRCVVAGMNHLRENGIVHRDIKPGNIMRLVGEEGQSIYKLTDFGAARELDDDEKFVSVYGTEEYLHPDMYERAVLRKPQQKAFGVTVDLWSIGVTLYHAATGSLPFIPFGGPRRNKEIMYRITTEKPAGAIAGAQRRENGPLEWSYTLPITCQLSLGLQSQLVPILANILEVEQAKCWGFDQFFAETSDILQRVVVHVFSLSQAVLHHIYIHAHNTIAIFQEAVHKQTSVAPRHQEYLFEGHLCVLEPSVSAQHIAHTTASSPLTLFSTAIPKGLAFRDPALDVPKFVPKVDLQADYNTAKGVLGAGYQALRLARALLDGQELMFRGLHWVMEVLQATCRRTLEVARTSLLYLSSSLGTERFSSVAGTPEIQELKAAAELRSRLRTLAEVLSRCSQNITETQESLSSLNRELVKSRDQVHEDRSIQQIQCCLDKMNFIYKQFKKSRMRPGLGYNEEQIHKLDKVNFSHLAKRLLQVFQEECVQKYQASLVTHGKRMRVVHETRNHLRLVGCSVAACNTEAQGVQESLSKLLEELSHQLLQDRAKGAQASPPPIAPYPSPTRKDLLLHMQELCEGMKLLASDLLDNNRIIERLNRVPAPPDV

Row | SMILES | IC50 (IKKε; [1]) [nM] | IC50 (hJAK2) [nM] | IC50 (TBK1) [nM] | IC50 (IKKε) [nM]
1 | Cn1ccc(C(=O)N2CCC(COc3ccc(-c4ncnc(Nc5ccc(N6CCN(C7COC7)CC6)cc5)n4)cc3C#N)CC2)cc1=O [Example 593, 2-((1-(1-methyl-2-oxo-1,2-dihydropyridine-4-carbonyl)piperidin-4-yl)methoxy)-5-(4-((4-(4-(oxetan-3-yl)piperazin-1-yl)phenyl)amino)-1,3,5-triazin-2-yl)benzonitrile] | 660 | ≥ 1000 | 452 | 
2 | Cn1ccc(C(=O)N2CCC(Oc3ccc(-c4ncnc(Nc5ccc(N6CCN(C7COC7)CC6)cc5)n4)cc3C#N)CC2)cc1=O [Example 595, 2-((1-(1-methyl-2-oxo-1,2-dihydropyridine-4-carbonyl)piperidin-4-yl)oxy)-5-(4-((4-(4-(oxetan-3-yl)piperazin-1-yl)phenyl)amino)-1,3,5-triazin-2-yl)benzonitrile] | 89 | ≥ 1000 | 69 | 
3 | N#Cc1cc(-c2ncnc(Nc3ccc(N4CCN(C5COC5)CC4)cc3)n2)ccc1OCCC1CNC(=O)C1 (stereo not drawn) [Example 597, 5-(4-((4-(4-(oxetan-3-yl)piperazin-1-yl)phenyl)amino)-1,3,5-triazin-2-yl)-2-(2-(5-oxopyrrolidin-3-yl)ethoxy)benzonitrile] | 131 | ≥ 1000 | 95 | 
4 | N#Cc1cc(-c2ncnc(Nc3ccc(N4CCN(C5COC5)CC4)cc3)n2)ccc1OCCNC(=O)c1cccnc1 [Example 598, N-(2-(2-cyano-4-(4-((4-(4-(oxetan-3-yl)piperazin-1-yl)phenyl)amino)-1,3,5-triazin-2-yl)phenoxy)ethyl)nicotinamide] | 720 | 521 | 267 | 
5 | N#Cc1cc(-c2ncnc(Nc3ccc(N4CCN(C5COC5)CC4)cc3)n2)ccc1OCCc1cnc2ncnn2c1 [Example 599] |  | 510 | 37 | 176
6 | COCCN1CC(COc2ccc(-c3ncnc(Nc4ccc(N5CCN(C6COC6)CC5)cc4)n3)cc2C#N)CC1=O (stereo not drawn) [Example 601, 2-((1-(2-methoxyethyl)-5-oxopyrrolidin-3-yl)methoxy)-5-(4-((4-(4-(oxetan-3-yl)piperazin-1-yl)phenyl)amino)-1,3,5-triazin-2-yl)benzonitrile] |  | ≥ 1000 | 1000 | ≥ 1000
7 | N#Cc1cc(-c2ncnc(Nc3ccc(N4CCN(C5COC5)CC4)cc3)n2)ccc1OCCNC(N)=O [Example 602, 1-(2-(2-cyano-4-(4-((4-(4-(oxetan-3-yl)piperazin-1-yl)phenyl)amino)-1,3,5-triazin-2-yl)phenoxy)ethyl)urea] |  | ≥ 1000 | 126 | 619
8 | N#Cc1cc(-c2ncnc(Nc3ccc(N4CCN(C5COC5)CC4)cc3)n2)ccc1OCC1CCNC(=O)C1 (stereo not drawn) [Example 604, 5-(4-((4-(4-(oxetan-3-yl)piperazin-1-yl)phenyl)amino)-1,3,5-triazin-2-yl)-2-((2-oxopiperidin-4-yl)methoxy)benzonitrile] |  | 950 | 28 | 37
9 | N#Cc1cc(-c2ncnc(Nc3ccc(N4CCN(C5COC5)CC4)cc3)n2)ccc1OCCN1CCN(C(N)=O)CC1 [Example 606, 4-(2-(2-cyano-4-(4-((4-(4-(oxetan-3-yl)piperazin-1-yl)phenyl)amino)-1,3,5-triazin-2-yl)phenoxy)ethyl)piperazine-1-carboxamide] |  | ≥ 1000 | 503 | 494
10 | N#Cc1cc(-c2ncnc(Nc3ccc(N4CCN(C5COC5)CC4)cc3)n2)ccc1OCC1CNC(=O)O1 (stereo not drawn) [Example 607, 5-(4-((4-(4-(oxetan-3-yl)piperazin-1-yl)phenyl)amino)-1,3,5-triazin-2-yl)-2-((2-oxooxazolidin-5-yl)methoxy)benzonitrile] |  | 161 | 21 | 16
11 | N#Cc1cc(-c2ncnc(Nc3ccc(N4CCN(C5COC5)CC4)cc3)n2)ccc1OCCN1CCNC(=O)C1 [Example 608, 5-(4-((4-(4-(oxetan-3-yl)piperazin-1-yl)phenyl)amino)-1,3,5-triazin-2-yl)-2-(2-(3-oxopiperazin-1-yl)ethoxy)benzonitrile] |  | ≥ 1000 | 662 | ≥ 1000
12 | Cc1cc(C)n(CCOc2ccc(-c3ncnc(Nc4ccc(N5CCN(C6COC6)CC5)cc4)n3)cc2C#N)n1 [Example 609, 2-(2-(3,5-dimethyl-1H-pyrazol-1-yl)ethoxy)-5-(4-((4-(4-(oxetan-3-yl)piperazin-1-yl)phenyl)amino)-1,3,5-triazin-2-yl)benzonitrile] |  | 237 | 1000 | ≥ 1000
13 | C[C@H](O)C(=O)N1CC[C@H](Oc2ccc(-c3ncnc(Nc4ccc([C@H]5CCCN5)cc4)n3)cc2C#N)[C@H](F)C1 [Example 615, 2-(((3R,4S)-3-fluoro-1-((S)-2-hydroxypropanoyl)piperidin-4-yl)oxy)-5-(4-((4-((R)-pyrrolidin-2-yl)phenyl)amino)-1,3,5-triazin-2-yl)benzonitrile] |  | ≥ 1000 | 4 | 1
14 | C[C@H](O)C(=O)N1CC[C@H](Oc2ccc(-c3ncnc(Nc4ccc([C@H]5CCCN5C5COC5)cc4)n3)cc2C#N)[C@H](F)C1 [Example 616, 2-(((3R,4S)-3-fluoro-1-((S)-2-hydroxypropanoyl)piperidin-4-yl)oxy)-5-(4-((4-((R)-1-(oxetan-3-yl)pyrrolidin-2-yl)phenyl)amino)-1,3,5-triazin-2-yl)benzonitrile] |  | ≥ 1000 | 5 | 4

Now from value to compound:

Row | IC50 (IKKε; [1]) [nM] | IC50 (hJAK2) [nM] | IC50 (TBK1) [nM] | IC50 (IKKε) [nM] | SMILES
15 | 232 | ≥ 1000 | 169 |  | N#Cc1cc(-c2ncnc(Nc3ccc(N4CCN(C5COC5)CC4)cc3)n2)ccc1OCC1CCC(=O)N1 (stereo not drawn) [Example 594, 5-(4-((4-(4-(oxetan-3-yl)piperazin-1-yl)phenyl)amino)-1,3,5-triazin-2-yl)-2-((5-oxopyrrolidin-2-yl)methoxy)benzonitrile]
16 | 403 | ≥ 1000 | 264 |  | CN1CCC(COc2ccc(-c3ncnc(Nc4ccc(N5CCN(C6COC6)CC5)cc4)n3)cc2C#N)CC1=O (stereo not drawn) [Example 596, 2-((1-methyl-2-oxopiperidin-4-yl)methoxy)-5-(4-((4-(4-(oxetan-3-yl)piperazin-1-yl)phenyl)amino)-1,3,5-triazin-2-yl)benzonitrile]
17 |  | ≥ 1000 | 1000 | ≥ 1000 | N#Cc1cc(-c2ncnc(Nc3ccc(N4CCN(C5COC5)CC4)cc3)n2)ccc1O[C@H]1CCN(c2cccnc2)C[C@H]1F [Example 611, 2-(((3R,4S)-3-fluoro-1-(pyridin-3-yl)piperidin-4-yl)oxy)-5-(4-((4-(4-(oxetan-3-yl)piperazin-1-yl)phenyl)amino)-1,3,5-triazin-2-yl)benzonitrile]
18 |  | 607 | 3 | 2 | Cc1noc(C(=O)N2CC[C@H](Oc3ccc(-c4ncnc(Nc5ccc(N6CCN(C7COC7)CC6)cc5)n4)cc3C#N)[C@H](F)C2)n1 [Example 612, 2-(((3R,4S)-3-fluoro-1-(3-methyl-1,2,4-oxadiazole-5-carbonyl)piperidin-4-yl)oxy)-5-(4-((4-(4-(oxetan-3-yl)piperazin-1-yl)phenyl)amino)-1,3,5-triazin-2-yl)benzonitrile]
19 |  | 69 | 128 | 175 | C[C@H](O)C(=O)N1CC[C@H](Nc2ccc(-c3ncnc(Nc4ccc(N5CCN(C6COC6)CC5)cc4)n3)cc2C#N)[C@H](F)C1 [Example 613, 2-(((3R,4S)-3-fluoro-1-((S)-2-hydroxypropanoyl)piperidin-4-yl)amino)-5-(4-((4-(4-(oxetan-3-yl)piperazin-1-yl)phenyl)amino)-1,3,5-triazin-2-yl)benzonitrile]
20 |  | 268 | 25 | 45 | N#Cc1cc(-c2ncnc(Nc3ccc(N4CCN(C5COC5)CC4)cc3)n2)ccc1O[C@H]1CCN(C(=O)C2(O)CNC2)C[C@H]1F [Example 614, 2-(((3R,4S)-3-fluoro-1-(3-hydroxyazetidine-3-carbonyl)piperidin-4-yl)oxy)-5-(4-((4-(4-(oxetan-3-yl)piperazin-1-yl)phenyl)amino)-1,3,5-triazin-2-yl)benzonitrile]
21 |  | 226 | 29 | 75 | COC[C@@H](O)C(=O)N1CC[C@H](Oc2ccc(-c3ncnc(Nc4ccc(N5CCN(C6COC6)CC5)cc4)n3)cc2C#N)[C@H](F)C1 [Example 617, 2-(((3R,4S)-3-fluoro-1-((R)-2-hydroxy-3-methoxypropanoyl)piperidin-4-yl)oxy)-5-(4-((4-(4-(oxetan-3-yl)piperazin-1-yl)phenyl)amino)-1,3,5-triazin-2-yl)benzonitrile]
22 |  | 162 | 2 | 1 | COC[C@H](O)C(=O)N1CC[C@H](Oc2ccc(-c3ncnc(Nc4ccc(N5CCN(C6COC6)CC5)cc4)n3)cc2C#N)[C@H](F)C1 [Example 618, 2-(((3R,4S)-3-fluoro-1-((S)-2-hydroxy-3-methoxypropanoyl)piperidin-4-yl)oxy)-5-(4-((4-(4-(oxetan-3-yl)piperazin-1-yl)phenyl)amino)-1,3,5-triazin-2-yl)benzonitrile]
